According to paper PMC11642016 (International Journal of Molecular Sciences, 2024):

Test: CellTiter-Glo cell viability assay, HEK293T CLPP−/− (ClpP dependence);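 further: CellTiter-Glo luminescent signal read on a microplate reader once HEK293T CLPP−/− cells had been exposed to compounds for 72 h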
Settings: human, HEK293T CLPP−/− cells, HEK293T CLPP-/- Cell viability (% of controll), 72 h, dose–response, individual replicates
Protocol: Primary fibroblast cultures were prepared from human skin biopsies and maintained in DMEM supplemented with 10% FBS, 1% penicillin-streptomycin, and 1% MEM Non-Essential Amino Acids Solution (Thermo Fisher Scientific). […] All cell lines were cultured in a humidified atmosphere at 37 °C and 5% CO2, passaged twice a week, and the experiments were performed on cells between passage 5 and 15. The cell lines were routinely screened for the absence of mycoplasma infection (DAPI staining).
The effects of the synthesized compounds on cell viability were measured using the CellTiter-Glo® luminescent cell viability assay (Promega, Madison, WI, USA), according to the manufacturer’s instructions. Briefly, cells were seeded onto a flat-bottomed, white 96-well plate (BRANDplates, cat. no.: 781965)), with the following densities: PANC-1: 750 cells/well, Fadu: 2000 cells/well, primary fibroblasts: 2000 cells/well, HEK293T WT: 1000 cells/well, HEK293T CLPP^−/−: 2500 cells/well. After seeding, cells were incubated for a further 48 h before treatment. Cells were treated with the compounds for 72 h. Three concentrations (25.0 µM; 8.3 µM; 2.8 µM) were applied during the initial cell viability screening, while for the determination of dose–response curves, 1.5-fold serially diluted compound concentrations were applied (range: 26 µM–0.7 µM). After treatment, the luminescence signal was recorded using a microplate reader (BioTek Synergy 2 Multi-Mode Reader, BioTek, Winooski, VT, USA).
Data analysis was performed using GraphPad Prism 9.5.0 software (GraphPad Software, San Diego, CA, USA). […] The dose–response curves were generated by four-parameter nonlinear regression, and the IC50 values were determined as the means ± SEM of the best-fit values of 3 independent measurements. The R^2 values were consistently above 0.93, indicating a strong fit of the model to the experimental data (Supplementary S.89). […] Dunnett’s post hoc test was applied to adjust for multiple comparisons, minimizing the likelihood of false positive results. Assumptions for ANOVA, including normality (assessed via QQ plots) and homogeneity of variance (tested using the Brown–Forsythe test), were verified. The following significance levels were applied: * p < 0.05, ** p < 0.01, *** p < 0.001, **** p < 0.0001. […] The tumor selectivity of the compounds was quantitatively characterized by the selectivity index (SI). This parameter was calculated as the ratio of the average best-fit IC50 value for primary fibroblasts and the best-fit IC50 value for the corresponding tumor cells (PANC-1 or Fadu).

CNCC#Cc1cccc(CN2C(=O)C3=C(CCN(Cc4ccc(-n5cc(-c6ccccc6)nn5)cc4)C3)N3CCN=C23)c1 [38b]
viability at 72 h, 0.4 µM (0.4 μM): 113% | viability at 72 h, 0.6 µM (0.6 μM): 117% | viability at 72 h, 1 µM (1.0 μM): 118% | viability at 72 h, 1.6 µM (1.6 μM): 100% | viability at 72 h, 6.4 µM (6.4 μM): 0% | viability at 72 h, 16.25 µM (16.25 μM): 0% | viability at 72 h, 26 µM (26 μM): 0%
